From patent publication US4829076A, “Novel dihydropyridines having calcium antagonistic and antihypertensive activity” (Alkaloida Vegyeszeti Gyar, priority 1986, dated 1989)
Like-named read-outs stand apart in the source and are kept apart here.

Experiments:
[1] = test system: anesthetized, normotensive cats; assay: Hypotensive effect in anesthetized, normotensive cats; assay type: in vivo, cat; conditions: 1 mg/kg id.
Procedure: A tube was inserted in the trachea of cats anesthetized with ip.35 mg/kg of pentobarbital sodium to ensure spontaneous respiration. The femoral artery and vein were both cannulated unilaterally. The vegetative test compounds (adrenaline, isoproterenol) were administered through the venous cannule. The mean arterial blood pressure was measured by joining the arterial cannule to a Statham P23Db pressure transducer and electromanometer. The heart rate was determined by a cardiotachometer triggered by arterial pulse-wave.
Various doses of the test compounds were administered through a cannule inserted into the duodenum.

[2] = test system: PGF2alpha induced uterus contractions (isolated rat uterus); assay: In vitro uterus relaxant activity in the isolated rat uterus (inhibition of PGF2alpha induced contraction); conditions: 10^-6 M test compound
Procedure: The test was performed according to the method of Gaddum and Hammeed [Brit. […] The inhibitory activity of 10^-6 M doses of the test compounds on the PGF2alpha induced uterus contractions was determined.

[3] = test system: spontaneously hypertensive conscious rats; assay: Antihypertensive effect in spontaneously hypertensive conscious rats ("SH" rats); assay type: in vivo, rat (Wistar-Okamoto); conditions: for change in vivo at 10 mg/kg / change in vivo at 2.5 mg/kg: Rattus norvegicus, po
Procedure: The blood pressure of rats was measured before treatment and hourly after drug administration till the 24th posttreatment hour. The test compounds were administered orally, by gavage.

[4] = target: T1, potential-mediated calcium channel (Rattus norvegicus, UniProt P22002); assay: Calcium-antagonistic effect on an isolated vessel preparation (portal vein); conditions: depolarizing solution (90 mM KCl), CaCl2 2.5 and 5.0 mM, 37° C., pH 7.4, read-out: Inhibition of the potential-mediated calcium channel, IC50
T1 construct: Portal veins were obtained from decapitated male rats; from tissue; host or cells: rat portal vein (longitudinally incised venous segment)

[5] = target: T2, 1,4-dihydropyridine receptor; assay: Receptor binding studies (displacement of 3H-nitrendipine, heart microsomal preparation); conditions: displacement of 50% of 3H-nitrendipine
T2 construct: to the heart microsomal preparation; from tissue; host or cells: heart microsomal preparation
T2 sequence (Q13936 whole entry): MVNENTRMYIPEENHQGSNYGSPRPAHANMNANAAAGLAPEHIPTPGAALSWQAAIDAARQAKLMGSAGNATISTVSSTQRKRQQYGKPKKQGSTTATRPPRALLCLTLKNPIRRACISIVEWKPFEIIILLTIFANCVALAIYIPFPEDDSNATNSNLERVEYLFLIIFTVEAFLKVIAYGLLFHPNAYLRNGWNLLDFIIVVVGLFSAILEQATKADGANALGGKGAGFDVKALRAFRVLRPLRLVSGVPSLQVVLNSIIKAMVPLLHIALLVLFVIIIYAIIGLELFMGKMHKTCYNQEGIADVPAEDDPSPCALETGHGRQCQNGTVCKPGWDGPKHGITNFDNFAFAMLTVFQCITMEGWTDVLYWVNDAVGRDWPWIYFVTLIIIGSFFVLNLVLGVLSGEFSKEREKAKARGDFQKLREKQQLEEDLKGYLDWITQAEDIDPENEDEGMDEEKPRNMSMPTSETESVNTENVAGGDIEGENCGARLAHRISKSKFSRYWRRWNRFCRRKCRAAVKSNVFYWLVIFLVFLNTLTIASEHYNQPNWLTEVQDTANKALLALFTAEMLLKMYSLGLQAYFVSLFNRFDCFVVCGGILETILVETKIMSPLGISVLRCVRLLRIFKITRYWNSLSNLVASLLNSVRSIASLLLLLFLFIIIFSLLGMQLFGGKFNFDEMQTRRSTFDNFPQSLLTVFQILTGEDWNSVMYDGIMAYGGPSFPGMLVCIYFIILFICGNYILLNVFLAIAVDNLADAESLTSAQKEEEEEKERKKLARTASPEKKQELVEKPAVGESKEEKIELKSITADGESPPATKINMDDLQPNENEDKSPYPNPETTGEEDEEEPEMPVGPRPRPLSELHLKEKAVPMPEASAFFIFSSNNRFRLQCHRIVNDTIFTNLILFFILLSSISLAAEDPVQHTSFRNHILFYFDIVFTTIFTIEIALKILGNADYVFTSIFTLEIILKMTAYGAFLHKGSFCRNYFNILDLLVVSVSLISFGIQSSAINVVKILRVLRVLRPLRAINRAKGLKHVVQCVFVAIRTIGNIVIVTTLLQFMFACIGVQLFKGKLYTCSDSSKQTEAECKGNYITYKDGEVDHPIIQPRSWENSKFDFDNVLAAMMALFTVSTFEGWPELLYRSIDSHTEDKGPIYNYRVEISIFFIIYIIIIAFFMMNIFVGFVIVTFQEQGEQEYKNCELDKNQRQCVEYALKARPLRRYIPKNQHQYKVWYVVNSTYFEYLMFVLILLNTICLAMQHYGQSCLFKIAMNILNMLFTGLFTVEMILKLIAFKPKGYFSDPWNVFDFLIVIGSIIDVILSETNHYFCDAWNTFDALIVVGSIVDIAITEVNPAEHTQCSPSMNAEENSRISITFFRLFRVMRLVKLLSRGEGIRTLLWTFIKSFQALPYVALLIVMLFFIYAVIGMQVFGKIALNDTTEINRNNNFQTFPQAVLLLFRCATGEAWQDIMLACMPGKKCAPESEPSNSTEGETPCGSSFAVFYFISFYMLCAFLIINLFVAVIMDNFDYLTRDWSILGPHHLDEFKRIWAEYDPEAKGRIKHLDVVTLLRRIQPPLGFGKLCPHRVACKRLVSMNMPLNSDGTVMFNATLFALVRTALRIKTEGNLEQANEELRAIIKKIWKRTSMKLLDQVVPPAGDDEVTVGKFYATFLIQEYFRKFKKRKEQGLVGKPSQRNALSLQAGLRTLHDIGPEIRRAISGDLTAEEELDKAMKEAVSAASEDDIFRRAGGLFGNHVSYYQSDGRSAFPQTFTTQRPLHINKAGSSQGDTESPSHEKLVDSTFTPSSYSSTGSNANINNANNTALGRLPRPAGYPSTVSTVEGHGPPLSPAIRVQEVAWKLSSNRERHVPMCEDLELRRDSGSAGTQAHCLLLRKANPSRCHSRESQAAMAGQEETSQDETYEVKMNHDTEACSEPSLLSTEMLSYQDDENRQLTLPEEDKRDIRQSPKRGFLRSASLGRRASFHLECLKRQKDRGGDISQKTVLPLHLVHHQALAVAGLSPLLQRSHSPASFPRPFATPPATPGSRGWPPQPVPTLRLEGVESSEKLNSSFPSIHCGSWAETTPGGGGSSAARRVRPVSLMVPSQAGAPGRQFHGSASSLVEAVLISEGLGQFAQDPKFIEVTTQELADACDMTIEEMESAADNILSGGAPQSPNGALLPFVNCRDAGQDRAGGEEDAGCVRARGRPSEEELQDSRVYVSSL
T2 sequence (P54289 25-955 partner limits assumed): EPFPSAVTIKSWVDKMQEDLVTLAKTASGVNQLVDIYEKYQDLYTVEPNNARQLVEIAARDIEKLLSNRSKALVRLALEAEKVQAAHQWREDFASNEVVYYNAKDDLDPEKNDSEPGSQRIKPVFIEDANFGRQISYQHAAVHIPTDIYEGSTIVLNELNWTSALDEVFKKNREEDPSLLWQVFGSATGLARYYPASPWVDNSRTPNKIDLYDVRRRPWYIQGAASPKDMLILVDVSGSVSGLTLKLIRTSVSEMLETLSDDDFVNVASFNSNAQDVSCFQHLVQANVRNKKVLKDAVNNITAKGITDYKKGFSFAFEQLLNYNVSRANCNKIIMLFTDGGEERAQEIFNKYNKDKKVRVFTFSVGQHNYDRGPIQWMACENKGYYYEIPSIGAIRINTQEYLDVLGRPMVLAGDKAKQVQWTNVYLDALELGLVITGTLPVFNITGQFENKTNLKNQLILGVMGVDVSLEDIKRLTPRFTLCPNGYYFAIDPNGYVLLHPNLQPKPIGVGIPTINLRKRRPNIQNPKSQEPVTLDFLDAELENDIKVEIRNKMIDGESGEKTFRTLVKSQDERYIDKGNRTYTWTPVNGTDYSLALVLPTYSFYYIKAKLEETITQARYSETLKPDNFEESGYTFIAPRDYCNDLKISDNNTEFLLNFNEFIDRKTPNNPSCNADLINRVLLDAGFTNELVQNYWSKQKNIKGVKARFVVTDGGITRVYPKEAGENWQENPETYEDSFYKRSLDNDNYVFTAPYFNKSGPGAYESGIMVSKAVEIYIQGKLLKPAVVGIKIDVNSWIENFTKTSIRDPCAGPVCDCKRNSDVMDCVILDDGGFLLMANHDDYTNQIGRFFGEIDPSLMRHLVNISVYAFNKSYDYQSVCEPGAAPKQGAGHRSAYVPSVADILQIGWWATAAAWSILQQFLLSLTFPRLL
T2 sequence (P54289 956-1103 partner limits assumed): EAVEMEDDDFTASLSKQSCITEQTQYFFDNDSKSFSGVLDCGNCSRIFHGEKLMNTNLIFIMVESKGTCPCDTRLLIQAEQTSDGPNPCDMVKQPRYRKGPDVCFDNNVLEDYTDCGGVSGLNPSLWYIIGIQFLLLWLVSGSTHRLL
T2 sequence (Q08289 whole entry partner): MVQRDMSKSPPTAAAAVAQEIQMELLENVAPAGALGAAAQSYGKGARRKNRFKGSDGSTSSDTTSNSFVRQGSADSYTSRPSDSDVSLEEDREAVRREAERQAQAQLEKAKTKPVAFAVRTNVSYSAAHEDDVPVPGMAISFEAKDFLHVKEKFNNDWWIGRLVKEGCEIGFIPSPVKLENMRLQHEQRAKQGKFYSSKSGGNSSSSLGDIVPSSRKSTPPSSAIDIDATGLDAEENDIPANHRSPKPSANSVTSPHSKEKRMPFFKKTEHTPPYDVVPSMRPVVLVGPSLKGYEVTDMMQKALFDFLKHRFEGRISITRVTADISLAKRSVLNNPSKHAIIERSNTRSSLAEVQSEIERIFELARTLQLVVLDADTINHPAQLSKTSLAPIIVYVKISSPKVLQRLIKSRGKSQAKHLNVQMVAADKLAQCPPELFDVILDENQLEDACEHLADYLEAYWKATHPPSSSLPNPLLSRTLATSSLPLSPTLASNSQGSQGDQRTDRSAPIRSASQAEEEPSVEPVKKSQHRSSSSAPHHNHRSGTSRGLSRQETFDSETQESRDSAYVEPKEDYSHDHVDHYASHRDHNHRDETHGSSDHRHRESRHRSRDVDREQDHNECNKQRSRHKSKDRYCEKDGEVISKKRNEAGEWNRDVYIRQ

[6] = 10 mg/kg p.o., 2 h, read-out: Systolic blood pressure reduction in %, 2 h
[7] = 10 mg/kg p.o., 5 h, read-out: Systolic blood pressure reduction in %, 5 h
[8] = 10 mg/kg p.o., 24 h, read-out: Systolic blood pressure reduction in %, 24 h
[9] = 2.5 mg/kg p.o., 2 h, read-out: Systolic blood pressure reduction in %, 2 h
[10] = 2.5 mg/kg p.o., 5 h, read-out: Systolic blood pressure reduction in %, 5 h
[11] = 2.5 mg/kg p.o., 24 h, read-out: Systolic blood pressure reduction in %, 24 h

| IC50 [4] [nM] | IC50 [5] [nM] | SMILES | Mean arterial pressure, 5 min [1] [Hgmm] | Mean arterial pressure, 15 min [1] [Hgmm] | Mean arterial pressure, 30 min [1] [Hgmm] | Mean arterial pressure, 60 min [1] [Hgmm] | Mean arterial pressure, 120 min [1] [Hgmm] | Inhibition of PGF2alpha induced contraction [2] [%] | Systolic blood pressure, 2 h ([3]; 10 mg/kg p.o., 2 h) [Hgmm] | Systolic blood pressure, 5 h ([3]; 10 mg/kg p.o., 5 h) [Hgmm] | Systolic blood pressure, 24 h ([3]; 10 mg/kg p.o., 24 h) [Hgmm] | change in vivo at 10 mg/kg [3, 6] [%] | change in vivo at 10 mg/kg [3, 7] [%] | change in vivo at 10 mg/kg [3, 8] [%] | Systolic blood pressure, 2 h ([3]; 2.5 mg/kg p.o., 2 h) [Hgmm] | Systolic blood pressure, 5 h ([3]; 2.5 mg/kg p.o., 5 h) [Hgmm] | Systolic blood pressure, 24 h ([3]; 2.5 mg/kg p.o., 24 h) [Hgmm] | change in vivo at 2.5 mg/kg [3, 9] [%] | change in vivo at 2.5 mg/kg [3, 10] [%] | change in vivo at 2.5 mg/kg [3, 11] [%] |
| --- | --- | --- | --- | --- | --- | --- | --- | --- | --- | --- | --- | --- | --- | --- | --- | --- | --- | --- | --- | --- |
|  |  | COC(=O)C1=C(C)NC(C)=C(C(=O)OC)C1c1ccccc1NC(=O)c1ccc(Cl)cc1 [Example 6] | 115 | 85 | 65 | 70 | 75 |  |  |  |  |  |  |  |  |  |  |  |  |  |
|  |  | COC(=O)C1=C(C)NC(C)=C(C(=O)OC)C1c1ccccc1NC(=O)c1ccccc1[N+](=O)[O-] [Example 8] |  |  |  |  |  | 96.7 |  |  |  |  |  |  |  |  |  |  |  |  |
|  |  | COC(=O)C1=C(C)NC(C)=C(C(=O)OC)C1c1ccccc1NC(=O)C=Cc1ccccc1 [Example 9] | 125 | 85 | 65 | 75 | 102 | 94.3 | 166.6 | 166.6 | 192.0 | -13 | -13 | 1 |  |  |  |  |  |  |
|  |  | COC(=O)C1=C(C)NC(C)=C(C(=O)OC)C1c1ccccc1NC(=O)c1ccco1 [Example 10] | 60 | 70 | 80 | 85 |  | 94.0 |  |  |  |  |  |  |  |  |  |  |  |  |
|  |  | COC(=O)C1=C(C)NC(C)=C(C(=O)OC)C1c1ccccc1NC(=O)C=Cc1ccc([N+](=O)[O-])cc1 [Example 11] | 147 | 130 | 125 | 120 | 132 | 77.8 | 140 | 157.8 | 178.8 | -26 | -16 | -5 |  |  |  |  |  |  |
|  |  | COC(=O)C1=C(C)NC(C)=C(C(=O)OC)C1c1ccccc1NC(=O)c1ccccc1 [Example 12] | 115 | 92 | 90 | 97 | 145 | 83.3 | 164 | 166.0 | 190.8 | -14 | -13 | 0 |  |  |  |  |  |  |
|  |  | COC(=O)C1=C(C)NC(C)=C(C(=O)OC)C1c1ccccc1NC(=O)c1ccc(OC)cc1 [Example 14] | 150 | 75 | 85 | 95 | 110 |  | 165 | 164.5 | 206.8 | -17 | -17 | 4 |  |  |  |  |  |  |
| 3 | 15.5 ± 3.5 | COC(=O)C1=C(C)NC(C)=C(C(=O)OC)C1c1ccccc1NC(=O)c1ccc(C)cc1 [Example 15] | 90 | 65 | 65 | 73 | 90 |  |  |  |  |  |  |  | 141.4 | 139.2 | 193.8 | -31 | -32 | -5 |
|  |  | CCCCCCCC(=O)Nc1ccccc1C1C(C(=O)OC)=C(C)NC(C)=C1C(=O)OC [Example 18] | 75 |  | 100 | 100 |  |  | 179.2 | 178 | 192.6 | -11 | -11 | -4 |  |  |  |  |  |  |
|  |  | COC(=O)C1=C(C)NC(C)=C(C(=O)OC)C1c1ccccc1NC(=O)c1cccc(C)c1 [Example 20] | 140 |  | 105 | 105 | 120 |  |  |  |  |  |  |  |  |  |  |  |  |  |
|  |  | COC(=O)C1=C(C)NC(C)=C(C(=O)OC)C1c1ccccc1NC(=O)c1ccccc1C [Example 21] | 90 | 95 | 100 | 110 | 110 |  | 175.2 | 167.8 | 201.4 | -10 | -14 | 4 |  |  |  |  |  |  |
|  |  | CCc1ccc(C(=O)Nc2ccccc2C2C(C(=O)OC)=C(C)NC(C)=C2C(=O)OC)cc1 [Example 22] | 120 | 110 | 105 | 85 | 85 |  |  |  |  |  |  |  | 142.2 | 144.0 | 191.4 | -27 | -26 | -2 |
|  |  | COCCOC(=O)C1=C(C)NC(C)=C(C(=O)OC)C1c1ccccc1NC(=O)c1ccc([N+](=O)[O-])cc1 (stereo not drawn) [Example 28] | 137 | 105 | 97 | 100 | 115 |  | 174.8 | 163.5 | 202.4 | -10 | -16 | 4 |  |  |  |  |  |  |
|  |  | COCCOC(=O)C1=C(C)NC(C)=C(C(=O)OC)C1c1ccccc1NC(=O)C(F)(F)F (stereo not drawn) [Example 36, 2,6-Dimethyl-3-methoxycarbonyl-5-(2-methoxyethoxycarbonyl)-4-(2-trifluoroacetamidophenyl)-1,4-dihydropyridine] |  |  |  |  |  |  | 172.8 | 172.4 | 222.0 | -19 | -19 | 4 |  |  |  |  |  |  |
|  |  | COC(=O)C1=C(C)NC(C)=C(C(=O)OC(C)C)C1c1ccccc1NC(=O)C(F)(F)F (stereo not drawn) [Example 37, 2,6-Dimethyl-3-isopropoxycarbonyl-5-methoxycarbonyl-4-(2-trifluoroacetamidophenyl)-1,4-dihydrophyridine] | 150 | 100 | 100 | 100 | 135 |  |  |  |  |  |  |  |  |  |  |  |  |  |
|  |  | COC(=O)C1=C(C)NC(C)=C(C(=O)OC)C1c1ccccc1NS(C)(=O)=O [Example 41, 2,6-Dimethyl-4-n2-methanesulfonylamidophenyl)-3,5-bis(methoxycarbonyle-1,4-dihydropyridine] | 90 | 80 | 85 |  |  |  |  |  |  |  |  |  |  |  |  |  |  |  |
|  |  | COC(=O)C1=C(C)NC(C)=C(C(=O)OC)C1c1ccccc1NS(=O)(=O)c1ccc([N+](=O)[O-])cc1 [Example 42, 2,6-Dimethyl-3,5bis(methoxycarbonyl)-4-[2-(4-nitrobenzenesulfonamido)-phenyl]-1,4-dihydropyridine] |  |  |  |  |  | 88.0 |  |  |  |  |  |  |  |  |  |  |  |  |
